From patent US11992620B2, “Methods of reducing the risk of mortality associated with a medical treatment” (Mallinckrodt Hospital Products IP Limited, priority 2013, dated 2024)
Read-outs that look alike come from different tables or passages of the source.

Experiments:
pre-term neonates [1] = conditions: 5 ppm for 7-21 days, cited from earlier work
pre-term neonates [2] = conditions: 10 ppm for 1 day, then 5 ppm for 6 days, cited from earlier work
pre-term neonates [3] = conditions: 5 ppm for 7 days, cited from earlier work
[4] = system: preterm neonates less than 30 weeks gestational age and less than 1250 grams; assay: BPD-301 study: multi-center, double blind, placebo-controlled randomized clinical trial of inhaled nitric oxide for prevention of BPD; assay type: in vivo, human; design: Mortality by race, % / ALIVE No (mortality rate), %: concentration or dose not given beside the values; conditions: for Mortality by race, %: INO N = 229
Experimental: A multi-center, double blind, placebo-controlled randomized clinical trial designated the “BPD-301” study was conducted to examine the efficacy of inhaled nitric oxide in preventing BPD in preterm neonates less than 30 weeks gestational age and less than 1250 grams who required mechanical ventilation or positive pressure support. Patients were identified as (1) American Indian or Alaska Native, (2) Asian, (3) Black, (4) Hispanic, (5) White, or (6) Other. Continuous inhaled nitric oxide or placebo gas administration into the inspiratory limb of the ventilator circuit in the mechanically ventilated subject was accomplished using an INOvent® delivery device. The placebo group received the same dose of nitrogen that the active or treatment group received of inhaled nitric oxide. Administration of inhaled nitric oxide or placebo was begun at a point during the window of time 5 to 14 days after the subject's birth and continued for 24 days thereafter. The starting dose was 20 ppm. A dose reduction schedule was followed: after 72 hours of treatment at 20 ppm, reducing to 10 ppm, and then reducing to 5 ppm on day 10. If an infant was extubated before 24 days, therapy was continued via nasal continuous positive airway pressure or nasal cannula to complete the protocol. 451 infants less than 30 weeks of gestation age were included in this trial, of which 449 were randomized and 2 were not randomized. There was a 1:1 randomization with 220 infants treated with placebo and 229 treated with inhaled nitric oxide.
In order to enroll in the BPD 301 study and receive inhaled nitric oxide for the prevention of BPD, a pre-term neonate could not have already previously been administered inhaled nitric oxide.
Additionally, if the pre-term neonate had undiagnosed pulmonary hypertension and happened to be placed on placebo (nitrogen) for purposes of the BPD-301 study, the pre-term neonate's hypoxic respiratory failure would have worsened and would have likely required immediate treatment with commercial inhaled nitric oxide. This administration of commercial inhaled nitric oxide would have failed the subject from the trial, both reducing the power of the trial and eliminating the subject from the study analysis.
A synopsis of the BPD-301 protocol follows.
The placebo and treatment groups were matched for the following characteristics: gestational age, age at the start of treatment, sex, length at birth, weight, head circumference, respiratory severity scores, apgar scores, and physical exam results.

pre-term neonates [5] = conditions: 5 ppm increased to 10 ppm if no response; mean 3 days therapy; cited from earlier work
pre-term neonates [6] = conditions: cited from earlier work
[7] = system: experimental BPD in preterm lambs; conditions: prolonged therapy, cited from earlier work
pre-term neonates [8] = conditions: 5 ppm while intubated, cited from earlier work
[9] = FEMALE N = 64, inhaled nitric oxide-treated white infants less than 27 weeks gestational age
[10] = median treatment duration 14 days

[N]=O [inhaled nitric oxide, nitric oxide]
survival without BPD at 36 weeks postmenstrual age (pre-term neonates [1]): 65%
survival without BPD at 36 weeks postmenstrual age vs placebo (pre-term neonates [1]; p=0.73): no difference
CLD/death (pre-term neonates [2]): 48.6%
severe IVH/PVL (pre-term neonates [2]): 12.4%
reduction in "abnormal or delayed" development (pre-term neonates [2]; p=0.01): 47%
reduction in CLD/death (pre-term neonates [2]; vs placebo, p=0.03): 24%
reduction in severe IVH/PVL (pre-term neonates [2]; vs placebo, p=0.04): 47%
death or BPD (pre-term neonates [3]): 77%
severe intraventricular haemorrhage (IVH) (pre-term neonates [3]): no increase
reduction in death or BPD (pre-term neonates [3]; vs placebo, p=0.14): 15.4%
Mortality by race, % ([4]; ALL, p=0.436 vs placebo, Fisher's exact test): 11.35%
Mortality by race, % ([4]; American Indian or Alaska Native): 0.00%
Mortality by race, % ([4]; Asian): 0.00%
Mortality by race, % ([4]; Black): 2.62%
ALIVE No (mortality rate), % [4, 9]: 4.7%
ALIVE Yes, % [4, 9]: 95.3%
Mortality by race, % ([4]; Hispanic): 1.31%
ALIVE No (mortality rate), % ([4]; MALE N = 56, inhaled nitric oxide-treated white infants less than 27 weeks gestational age): 21.4%
ALIVE Yes, % ([4]; MALE N = 56, inhaled nitric oxide-treated white infants less than 27 weeks gestational age, p=0.011 male vs female): 78.6%
Mortality by race, % ([4]; Native Hawaiian or other Pacific Islander): 0.00%
Mortality by race, % ([4]; Other): 0.87%
Mortality by race, % ([4]; White): 6.55%
difference in mortality between treatment and placebo groups ([4]; any other racial category (than white)): no similar difference
mortality rate, inhaled nitric oxide vs placebo group ([4]; overall trial population, Fisher's exact test p=0.436): not significantly different
mortality rate vs placebo group ([4]; white population): higher mortality rate
ALIVE No (deaths), % ([4]; white preterm infants less than 27 weeks gestational age, INO N = 120): 12.5%
ALIVE Yes, % ([4]; white preterm infants less than 27 weeks gestational age, INO N = 120, p=0.010 vs placebo): 87.5%
risk of death as compared to placebo ([4]; white, male, preterm infants of less than 27 weeks gestational age treated for prevention of BPD): significant risk of death
IVH vs placebo (pre-term neonates [5]): no difference
death or BPD vs placebo (pre-term neonates [5]): no difference
survival without CLD at 36 weeks postmenstrual age (pre-term neonates [6]; 20 ppm for 2 to 4 days, then stepped-down weekly, 24 days): 43.9%
improvement in survival without CLD at 36 weeks postmenstrual age (pre-term neonates [6]; 20 ppm for 2 to 4 days, then stepped-down weekly, 24 days, vs placebo, p=0.042): 20%
discharged or off all ventilator support (pre-term neonates [6]; 40 weeks, p=0.01): 65%
discharged or off all ventilator support (pre-term neonates [6]; 44 weeks, p=0.03): 82%
lung vascular growth ([7]; after VEGF inhibition): improves lung vascular growth
alveolarization ([7]; experimental BPD in preterm lambs): improves alveolarization
IVH/PVL (pre-term neonates [8]): 17.5%
CLD or death (pre-term neonates [8]; [10]): 71.6%
CLD or death vs placebo (pre-term neonates [8]; [10]): no difference
reduction in IVH/PVL (pre-term neonates [8]; vs placebo): 27%
